Molecular target: T1, mutant G12C K-RAS (Homo sapiens, UniProt P01116, G12C)
T1 construct: made in house; host or cells: E. coli BL21
Assay: covalent adduct formation (CAF) with mutant G12C K-RAS
Type: binding
Conditions: Table 6; 10 μM, 1 h
Protocol: Embodiments disclosed herein are further illustrated by the following examples in Tables 1-4 and the Examples hereinbelow. The Tables indicate the compound number, structure, the observed mass spectral molecular weight peak, and covalent adduct formation (CAF) with a mutant G12C K-RAS after 60 minutes at a concentration of 10 micromolar.

% CAF @ 10 μM,1 h [%] | Compound
53.4 | C=CC(=O)N1C[C@H](C)N(c2nc(=O)n3c4c(c(-c5ccc(F)cc5F)c(Cl)cc24)OC[C@@H]3CN(C(=O)[C@@H]2CCCN2C)C2CC2)C[C@H]1C [Example 310, (2S)-N-(((3S)-7-((2S,5R)-4-acryloyl-2,5-dimethylpiperazin-1-yl)-9-chloro-10-(2,4-difluorophenyl)-5-oxo-2,3-dihydro-5H-[1,4]oxazino[2,3,4-ij]quinazolin-3-yl)methyl)-N-cyclopropyl-1-methylpyrrolidine-2-carboxamide]
68.2 | C=CC(=O)N1C[C@H](C)N(c2nc(=O)n3c4c(c(-c5ccc(F)cc5F)c(Cl)cc24)OC[C@H]3CCCN2CC3CCC(C2)O3)C[C@H]1C [Example 312, (3R)-3-(3-(8-oxa-3-azabicyclo[3.2.1]octan-3-yl)propyl)-7-((2S,5R)-4-acryloyl-2,5-dimethylpiperazin-1-yl)-9-chloro-10-(2,4-difluorophenyl)-2,3-dihydro-5H-[1,4]oxazino[2,3,4-ij]quinazolin-5-one]
89.8 | C=CC(=O)N1C[C@H](C)N(c2nc(=O)n3c4c(c(-c5ccc(F)cc5F)c(Cl)cc24)OC[C@H]3CCCN2C[C@H]3C[C@@H]2CO3)C[C@H]1C [Example 315, (3R)-3-(3-((1R,4R)-2-oxa-5-azabicyclo[2.2.1]heptan-5-yl)propyl)-7-((2S,5R)-4-acryloyl-2,5-dimethylpiperazin-1-yl)-9-chloro-10-(2,4-difluorophenyl)-2,3-dihydro-5H-[1,4]oxazino[2,3,4-ij]quinazolin-5-one]
84.2 | C=CC(=O)N1C[C@H](C)N(c2nc(=O)n3c4c(c(-c5ccc(F)cc5F)c(Cl)cc24)OC[C@H]3CC2CCN(C3COC3)CC2)C[C@H]1C [Example 316, (3R)-7-((2S,5R)-4-acryloyl-2,5-dimethylpiperazin-1-yl)-9-chloro-10-(2,4-difluorophenyl)-3-((1-(oxetan-3-yl)piperidin-4-yl)methyl)-2H-[1,4]oxazino[2,3,4-ij]quinazolin-5(3H)-one]
81.1 | C=CC(=O)N1C[C@H](C)N(c2nc(=O)n3c4c(c(-c5ccc(F)cc5F)c(C5CC5)cc24)OC[C@H]3CCCN2C[C@@H]3C[C@H]2CO3)C[C@H]1C [Example 323, (3R)-3-(3-((1S,4S)-2-oxa-5-azabicyclo[2.2.1]heptan-5-yl)propyl)-7-((2S,5R)-4-acryloyl-2,5-dimethylpiperazin-1-yl)-9-cyclopropyl-10-(2,4-difluorophenyl)-2,3-dihydro-5H-[1,4]oxazino[2,3,4-ij]quinazolin-5-one]
63.4 | C=CC(=O)N1C[C@H](C)N(c2nc(=O)n3c4c(c(-c5ccc(F)cc5F)c(Cl)cc24)OC[C@@H]3CC2CCN(C)CC2)C[C@H]1C [Example 324, (3S)-7-((2S,5R)-4-acryloyl-2,5-dimethylpiperazin-1-yl)-9-chloro-10-(2,4-difluorophenyl)-3-((1-methylpiperidin-4-yl)methyl)-2H-[1,4]oxazino[2,3,4-ij]quinazolin-5(3H)-one]
84.5 | C=CC(=O)N1C[C@H](C)N(c2nc(=O)n3c4c(c(-c5ccc(F)cc5F)c(Cl)cc24)OC[C@H]3CCCN(C)C2COC2)C[C@H]1C [Example 327, (3R)-7-((2S,5R)-4-acryloyl-2,5-dimethylpiperazin-1-yl)-9-chloro-10-(2,4-difluorophenyl)-3-(3-(methyl(oxetan-3-yl)amino)propyl)-2,3-dihydro-5H-[1,4]oxazino[2,3,4-ij]quinazolin-5-one]
87 | C=CC(=O)N1C[C@H](C)N(c2nc(=O)n3c4c(c(-c5ccc(F)cc5F)c(Cl)cc24)OC[C@H]3CC2CCN(CC(F)F)CC2)C[C@H]1C [Example 328, (3R)-7-((2S,5R)-4-acryloyl-2,5-dimethylpiperazin-1-yl)-9-chloro-3-((1-(2,2-difluoroethyl)piperidin-4-yl)methyl)-10-(2,4-difluorophenyl)-2H-[1,4]oxazino[2,3,4-ij]quinazolin-5(3H)-one]
73.4 | C=CC(=O)N1C[C@H](C)N(c2nc(=O)n3c4c(c(-c5ccc(F)cc5F)c(Cl)cc24)OC[C@H]3CC2CCN(C3CC3)CC2)C[C@H]1C [Example 329, (3R)-7-((2S,5R)-4-acryloyl-2,5-dimethylpiperazin-1-yl)-9-chloro-3-((1-cyclopropylpiperidin-4-yl)methyl)-10-(2,4-difluorophenyl)-2H-[1,4]oxazino[2,3,4-ij]quinazolin-5(3H)-one]
91.7 | C=CC(=O)N1C[C@H](C)N(c2nc(=O)n3c4c(c(-c5ccc(F)cc5F)c(Cl)cc24)OC[C@H]3CCCN2CC[C@H](F)C2)C[C@H]1C [Example 330, (3R)-7-((2S,5R)-4-acryloyl-2,5-dimethylpiperazin-1-yl)-9-chloro-10-(2,4-difluorophenyl)-3-(3-((S)-3-fluoropyrrolidin-1-yl)propyl)-2,3-dihydro-5H-[1,4]oxazino[2,3,4-ij]quinazolin-5-one]
59.2 | C=CC(=O)N1C[C@H](C)N(c2nc(=O)n3c4c(c(-c5ccc(F)cc5F)c(Cl)cc24)OC[C@H]3CCCN(CC(F)(F)F)C2COC2)C[C@H]1C [Example 331, (3R)-7-((2S,5R)-4-acryloyl-2,5-dimethylpiperazin-1-yl)-9-chloro-10-(2,4-difluorophenyl)-3-(3-(oxetan-3-yl(2,2,2-trifluoroethyl)amino)propyl)-2,3-dihydro-5H-[1,4]oxazino[2,3,4-ij]quinazolin-5-one]
56.9 | C=CC(=O)N1C[C@H](C)N(c2nc(=O)n3c4c(c(-c5ccc(F)cc5F)c(C#N)cc24)OC[C@H]3CCCN2C[C@@H]3C[C@H]2CO3)C[C@H]1C [Example 332, (3R)-3-(3-((1S,4S)-2-oxa-5-azabicyclo[2.2.1]heptan-5-yl)propyl)-7-((2S,5R)-4-acryloyl-2,5-dimethylpiperazin-1-yl)-10-(2,4-difluorophenyl)-5-oxo-2,3-dihydro-5H-[1,4]oxazino[2,3,4-ij]quinazoline-9-carbonitrile]
83.9 | C=CC(=O)N1C[C@H](C)N(c2nc(=O)n3c4c(c(-c5ccc(F)cc5F)c(Cl)cc24)OC[C@H]3CC2CCN(CC)CC2)C[C@H]1C [Example 333, (3R)-7-((2S,5R)-4-acryloyl-2,5-dimethylpiperazin-1-yl)-9-chloro-10-(2,4-difluorophenyl)-3-((1-ethylpiperidin-4-yl)methyl)-2H-[1,4]oxazino[2,3,4-ij]quinazolin-5(3H)-one]
84.6 | C=CC(=O)N1C[C@H](C)N(c2nc(=O)n3c4c(c(-c5ccc(F)cc5F)c(Cl)cc24)OC[C@H]3CCCN2CC[C@H](OC)C2)C[C@H]1C [Example 334, (3R)-7-((2S,5R)-4-acryloyl-2,5-dimethylpiperazin-1-yl)-9-chloro-10-(2,4-difluorophenyl)-3-(3-((S)-3-methoxypyrrolidin-1-yl)propyl)-2,3-dihydro-5H-[1,4]oxazino[2,3,4-ij]quinazolin-5-one]
54.6 | C=CC(=O)N1C[C@H](C)N(c2nc(=O)n3c4c(c(-c5ccc(F)cc5F)c(Cl)cc24)OC[C@H]3CO[C@H]2CCN(C)C2)C[C@H]1C [Example 335, (3R)-7-((2S,5R)-4-acryloyl-2,5-dimethylpiperazin-1-yl)-9-chloro-10-(2,4-difluorophenyl)-3-((((S)-1-methylpyrrolidin-3-yl)oxy)methyl)-2H-[1,4]oxazino[2,3,4-ij]quinazolin-5(3H)-one]

Compound | % CAF @ 10 μM,1 h [%]
C=CC(=O)N1C[C@H](C)N(c2nc(=O)n3c4c(c(-c5ccc(F)cc5F)c(Cl)cc24)OC[C@H]3CCCN2C3CCC2CN(C)C3)C[C@H]1C [Example 311, (3R)-7-((2S,5R)-4-acryloyl-2,5-dimethylpiperazin-1-yl)-9-chloro-10-(2,4-difluorophenyl)-3-(3-(3-methyl-3,8-diazabicyclo[3.2.1]octan-8-yl)propyl)-2,3-dihydro-5H-[1,4]oxazino[2,3,4-ij]quinazolin-5-one] | 64.1
C=CC(=O)N1C2CC(=O)CC1CN(c1nc(=O)n3c4c(c(-c5ccc(F)cc5F)c(C(F)(F)F)cc14)OCC3)C2 [Example 337, 7-(9-acryloyl-7-oxo-3,9-diazabicyclo[3.3.1]nonan-3-yl)-10-(2,4-difluorophenyl)-9-(trifluoromethyl)-2,3-dihydro-5H-[1,4]oxazino[2,3,4-ij]quinazolin-5-one] | 95.9
